Laboratory results: patent US20090030039A1, “Piperidine Derivatives as Cxcr3 Receptor Antagonists” (priority 2006, published 2009)
Structures can show the parent of a compound that is named as a salt.

Target: T1, human CXCR3 (Homo sapiens, UniProt P49682)
T1 construct: expressed in transfected cells; host or cells: CHO cells (membrane preparation)
T1 sequence (P49682 1-368): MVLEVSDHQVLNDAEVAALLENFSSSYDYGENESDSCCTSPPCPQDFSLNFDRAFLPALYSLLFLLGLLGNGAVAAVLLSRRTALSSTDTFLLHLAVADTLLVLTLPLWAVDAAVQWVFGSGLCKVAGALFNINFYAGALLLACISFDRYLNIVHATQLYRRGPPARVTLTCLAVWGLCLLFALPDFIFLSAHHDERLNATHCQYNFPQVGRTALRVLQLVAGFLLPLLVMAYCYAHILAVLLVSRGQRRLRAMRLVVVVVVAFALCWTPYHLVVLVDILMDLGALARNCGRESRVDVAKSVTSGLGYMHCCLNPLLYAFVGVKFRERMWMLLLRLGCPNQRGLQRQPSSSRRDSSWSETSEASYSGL
Assay: [35S]GTPγS exchange assay, CXCR3 receptor inhibition (hI-TAC-induced GTPγS-binding)
Assay type: biochemical
Conditions: -log IC50 (molar) inhibiting 50% of specific I-TAC-induced GTPγS-binding; membranes of human CXCR3-transfected CHO cells
Protocol: CXCR3 Receptor Inhibition was Examined in a [^35S]GTPγS Exchange Assay
The exchange of guanosine 5′-[^35S]triphosphate was measured on membranes of human CXCR3-transfected CHO cells. [^35S]GTPγS exchange assays were performed in 96-well plates with 10 μg of membrane protein/well using basic flashplates (Perkin Elmer). Compounds were dissolved in DMSO and diluted with incubation buffer to yield required concentrations with 9% DMSO. Incubation buffer is composed of 20 mM HEPES, 100 mM NaCl, 3 μM GDP and 1 mM MgCl2, pH 7.4. […] Compound, membranes, hI-TAC (interferon-inducible T-cell alpha chemoattractant) and [^35S]GTPγS were added in a total volume of 200 μl. First, 20 μl of the appropriate compound dilution and 140 μl membranes from CXCR3-CHO cells were dissolved in membrane incubation buffer and pre-incubated for 30 minutes at 30° C. Then, 20 μl of hI-TAC dissolved at 30 nM in incubation buffer was added to the membranes and the mixture containing 1% of DMSO was incubated for another 30 minutes at 30° C. […] After 1 minute shaking and 30 minutes incubation at 30° C., flashplates were centrifuged for 5 minutes at 2500 rpm at room temperature. Flashplate bound radioactivity was determined by liquid scintillation counting. Basal GTPγS-binding was measured in 8 wells with membranes incubated in the same volume with 1% DMSO, without I-TAC. Maximal GTPγS-binding was measured in 8 wells with membranes incubated with 1% DMSO and 3 nM I-TAC. […] IC50 values were calculated using non-linear regression in Graphpad Prism.

SMILES	pIC50
O=C1CCC(c2ccccc2)(C2CCN(Cc3ccc(Cl)c(F)c3)CC2)C(=O)N1 (single isomer, unassigned) [Compound 41]	6.4
O=C1NCCCC1(c1ccccc1)C1CCN(Cc2ccc(Br)cc2)CC1 (stereo not drawn) [Compound 142]	5.8

Next, values leading:

pIC50	SMILES
6.0	O=C1CCC(c2cccnc2)(C2CCN(Cc3ccc(Br)cc3)CC2)C(=O)N1 (stereo not drawn) [Compound 178]
5.3	O=C1CCC(c2ccc(C(=O)O)cc2)(C2CCN(Cc3ccc(Br)cc3)CC2)C(=O)N1 (stereo not drawn) [Compound 193]

Same assay, conditions: -log IC50 (molar) inhibiting 50% of specific I-TAC-induced GTPγS-binding; membranes of human CXCR3-transfected CHO cells; read-out: pIC50 (converted)

SMILES	IC50
O=C1CCC(c2ccccc2)(C2CCN(Cc3ccc(Cl)c(F)c3)CC2)C(=O)N1 (single isomer, unassigned) [Compound 40]	398 nM
Cl.O=C1CCC(c2ccc(F)cc2F)(C2CCN(Cc3ccc(Cl)c(F)c3)CC2)C(=O)N1 (single isomer, unassigned) [Compound 203]	79.4 nM
Cl.O=C1CCC(c2ccc(F)cc2F)(C2CCN(Cc3ccc(Cl)c(F)c3)CC2)C(=O)N1 (single isomer, unassigned) [Compound 204]	251 nM
O=C1CCC(c2ccc(F)cc2)(C2CCN(Cc3ccc(Cl)c(F)c3)CC2)CN1 (stereo not drawn) [Compound 139]	1580 nM
O=C1CCC(c2ccccc2)(C2CCN(Cc3ccc(Cl)c(Cl)c3)CC2)CN1 (stereo not drawn) [Compound 140]	794 nM
O=C1CCC(c2ccc(F)cc2)(C2CCN(Cc3ccc(Cl)c(Cl)c3)CC2)CN1 (stereo not drawn) [Compound 141]	1580 nM
O=C1CCC(c2ccc(F)cc2)(C2CCN(Cc3ccc(Br)cc3)CC2)CN1 (stereo not drawn) [Compound 143]	631 nM
CC(c1ccc(Br)cc1)N1CCC(C2(c3ccc(F)cc3)CCC(=O)NC2)CC1 (stereo not drawn) [Compound 144]	631 nM
Cc1cc(CN2CCC(C3(c4ccc(F)cc4)CCC(=O)NC3)CC2)ccc1Br (stereo not drawn) [Compound 145]	794 nM
O=C1CCC(c2ccccc2)(C2CCN(Cc3ccc(C(F)(F)F)cc3)CC2)CN1 (stereo not drawn) [Compound 146]	2510 nM
O=C1CCC(c2ccc(F)cc2)(C2CCN(Cc3ccc(OC(F)F)cc3)CC2)CN1 (stereo not drawn) [Compound 147]	3980 nM
O=C1CCC(c2ccccc2)(C2CCN(Cc3ccc(OCc4ccc(Cl)cc4)cc3)CC2)CN1 (stereo not drawn) [Compound 148]	6310 nM
O=C1CCC(c2cccc(Cl)c2)(C2CCN(Cc3ccc4ccccc4c3)CC2)C(=O)N1 (stereo not drawn) [Compound 149]	5010 nM
O=C1CCC(c2ccc(F)cc2)(C2CCN(Cc3ccc4ccccc4c3)CC2)C(=O)N1 (stereo not drawn) [Compound 150]	1000 nM
O=C1CCC(c2ccccc2)(C2CCN(Cc3ccc(Cl)s3)CC2)C(=O)N1 (stereo not drawn) [Compound 151]	3160 nM
O=C1CCC(c2cccc(Cl)c2)(C2CCN(Cc3ccc(Cl)s3)CC2)C(=O)N1 (stereo not drawn) [Compound 152]	794 nM
O=C1CCC(c2ccc(F)cc2)(C2CCN(Cc3ccc(Cl)s3)CC2)C(=O)N1 (stereo not drawn) [Compound 153]	1260 nM
O=C1CCC(c2ccccc2)(C2CCN(Cc3ccc(Cl)s3)CC2)C(=O)N1 (stereo not drawn) [Compound 154]	2510 nM

SMILES	IC50
O=C1CCC(c2ccccc2)(C2CCN(Cc3cc(F)c(F)cc3F)CC2)C(=O)N1 (stereo not drawn) [Compound 155]	2510 nM
O=C1CCC(c2ccc(F)cc2)(C2CCN(Cc3cc(F)c(F)cc3F)CC2)C(=O)N1 (stereo not drawn) [Compound 156]	794 nM
Cc1cc(C)c(CN2CCC(C3(c4ccccc4)CCC(=O)NC3=O)CC2)c(C)c1 (stereo not drawn) [Compound 157]	3160 nM
O=C1CCC(c2ccccc2)(C2CCN(Cc3cc4cc(Br)ccc4o3)CC2)C(=O)N1 (stereo not drawn) [Compound 158]	1260 nM
O=C1CCC(c2cccc(C(=O)O)c2)(C2CCN(Cc3cc4cc(Br)ccc4o3)CC2)C(=O)N1 (stereo not drawn) [Compound 160]	316 nM
O=C1CCC(c2ccc(F)cc2)(C2CCN(Cc3cc4cc(Br)ccc4o3)CC2)C(=O)N1 (stereo not drawn) [Compound 161]	3160 nM
O=C1CCC(c2ccc(F)cc2)(C2CCN(Cc3ccc4nonc4c3)CC2)C(=O)N1 (stereo not drawn) [Compound 163]	3980 nM
CC(c1ccc(Br)cc1)N1CCC(C2(c3cccc(Cl)c3)CCC(=O)NC2=O)CC1 (stereo not drawn) [Compound 164]	1000 nM
CC(c1ccc(Br)cc1)N1CCC(C2(c3cccc(C(=O)O)c3)CCC(=O)NC2=O)CC1 (stereo not drawn) [Compound 165]	794 nM
O=C1CCC(c2ccncc2)(C2CCN(Cc3ccc(Cl)c(Cl)c3)CC2)C(=O)N1 (stereo not drawn) [Compound 169]	1000 nM
CC(c1ccc(Br)cc1)N1CCC(C2(c3ccncc3)CCC(=O)NC2=O)CC1 (stereo not drawn) [Compound 171]	1580 nM
O=C1CCC(c2ccncc2)(C2CCN(Cc3ccc(-c4ccccc4)cc3)CC2)C(=O)N1 (stereo not drawn) [Compound 174]	5010 nM
O=C1CCC(c2cccnc2)(C2CCN(Cc3ccc(F)c(F)c3F)CC2)C(=O)N1 (stereo not drawn) [Compound 175]	1000 nM
O=C1CCC(c2cccnc2)(C2CCN(Cc3ccc(Cl)c(F)c3)CC2)C(=O)N1 (stereo not drawn) [Compound 176]	2000 nM
O=C1CCC(c2cccnc2)(C2CCN(Cc3ccc(Cl)c(Cl)c3)CC2)C(=O)N1 (stereo not drawn) [Compound 177]	1000 nM
O=C1CCC(c2ccc(F)cc2F)(C2CCN(Cc3ccc(Br)c(F)c3)CC2)C(=O)N1 (stereo not drawn) [Compound 197]	398 nM
O=C1CCC(c2ccc(F)cc2F)(C2CCN(Cc3ccc4nonc4c3)CC2)C(=O)N1 (stereo not drawn) [Compound 207]	398 nM

Further lines, results first:

IC50	SMILES
316 nM	Cl.O=C1CCC(c2ccc(F)cc2F)(C2CCN(Cc3ccc(Br)cc3)CC2)C(=O)N1 (single isomer, unassigned) [Compound 195]
2000 nM	O=C1CCC(c2cccnc2)(C2CCN(Cc3ccc(Br)cc3F)CC2)C(=O)N1 (stereo not drawn) [Compound 179]
2510 nM	O=C1CCC(c2cccnc2)(C2CCN(Cc3ccc(OC(F)(F)F)cc3)CC2)C(=O)N1 (stereo not drawn) [Compound 180]
1260 nM	O=C1CCC(c2ccncc2)(C2CCN(Cc3cc4cc(Br)ccc4o3)CC2)C(=O)N1 (stereo not drawn) [Compound 183]
1580 nM	O=C1CCC(c2cccnc2)(C2CCN(Cc3cc4cc(Br)ccc4o3)CC2)C(=O)N1 (stereo not drawn) [Compound 184]
> 10000 nM	O=C1CCC(c2ccc([N+](=O)[O-])cc2)(C2CCN(Cc3ccccc3[N+](=O)[O-])CC2)C(=O)N1 (stereo not drawn) [Compound 186]
2000 nM	O=C1CCC(c2ccccc2)(C2CCN(Cc3ccc(Cl)cc3)CC2)C(=O)N1Cc1ccc(Cl)cc1 (stereo not drawn) [Compound 189]
6310 nM	O=C1CCC(c2ccc(C(=O)O)cc2)(C2CCN(Cc3ccc(F)c(Cl)c3)CC2)C(=O)N1 (stereo not drawn) [Compound 190]
5010 nM	O=C1CCC(c2ccc(C(=O)O)cc2)(C2CCN(Cc3ccc(Cl)cc3)CC2)C(=O)N1 (stereo not drawn) [Compound 191]
2510 nM	O=C1CCC(c2ccc(F)c(F)c2)(C2CCN(Cc3ccc(Cl)c(F)c3)CC2)C(=O)N1 (stereo not drawn) [Compound 192]
316 nM	Cc1cc(CN2CCC(C3(c4ccc(F)cc4F)CCC(=O)NC3=O)CC2)ccc1Br (stereo not drawn) [Compound 196]
251 nM	O=C1CCC(c2ccc(F)cc2F)(C2CCN(Cc3ccc(Br)cc3F)CC2)C(=O)N1 (stereo not drawn) [Compound 198]
251 nM	O=C1CCC(c2ccc(F)cc2F)(C2CCN(Cc3ccc(Cl)cc3)CC2)C(=O)N1 (stereo not drawn) [Compound 199]
631 nM	O=C1CCC(c2ccc(F)cc2F)(C2CCN(Cc3ccc(Cl)cc3Cl)CC2)C(=O)N1 (stereo not drawn) [Compound 200]
398 nM	O=C1CCC(c2ccc(F)cc2F)(C2CCN(Cc3ccc(Cl)c(Cl)c3)CC2)C(=O)N1 (stereo not drawn) [Compound 201]
631 nM	O=C1CCC(c2ccc(F)cc2F)(C2CCN(Cc3ccc(OC(F)F)cc3)CC2)C(=O)N1 (stereo not drawn) [Compound 205]
1260 nM	O=C1CCC(c2ccc(F)cc2F)(C2CCN(Cc3cc4cc(Br)ccc4o3)CC2)C(=O)N1 (stereo not drawn) [Compound 206]
158 nM	CC(c1ccc(Br)cc1)N1CCC(C2(c3ccc(F)cc3F)CCC(=O)NC2=O)CC1 (stereo not drawn) [Compound 208]
501 nM	CC1CC(=O)NC(=O)C1(c1ccccc1)C1CCN(Cc2ccc(Br)cc2)CC1 (stereo not drawn) [Compound 209]
1260 nM	CC(=O)N1CC(c2ccccc2)(C2CCN(Cc3ccc(Br)cc3)CC2)CCC1=O (stereo not drawn) [Compound 210]

System: not given
Assay: not given
Conditions: not given

SMILES	melting point
Cl.Nc1cc(CN2CCC(C3(c4ccccc4)CCC(=O)NC3=O)CC2)ccc1Cl (stereo not drawn)	287.8 °C
O=C1CCC(c2ccccc2)(C2CCN(Cc3ccc(Cl)c([N+](=O)[O-])c3)CC2)C(=O)N1 (stereo not drawn) (as salt: HCl) [Compound 12]	244.4 to 248.3 °C
O=C1CCC(c2ccccc2)(C2CCN(Cc3ccc(Cl)c(F)c3)CC2)C(=O)N1 (single isomer, unassigned) [Compound 40]	192 to 194.3 °C
O=C1CCC(c2ccccc2)(C2CCN(Cc3ccc(Cl)c(F)c3)CC2)C(=O)N1 (single isomer, unassigned) [Compound 41]	192.3 to 196.3 °C
Cl.O=C1CCC(c2ccc(F)cc2F)(C2CCN(Cc3ccc(Br)cc3)CC2)C(=O)N1 (single isomer, unassigned) [Compound 195]	273.9 to 278.3 °C
Cl.O=C1CCC(c2ccc(F)cc2F)(C2CCN(Cc3ccc(Cl)c(F)c3)CC2)C(=O)N1 (single isomer, unassigned) [Compound 203]	282 to 285.9 °C
Cl.O=C1CCC(c2ccc(F)cc2F)(C2CCN(Cc3ccc(Cl)c(F)c3)CC2)C(=O)N1 (single isomer, unassigned) [Compound 204]	282 to 283.8 °C
